The results in this text go back to patent US12459951B2, “Compounds that interact with RAS superfamily proteins for treatment of cancers, inflammatory diseases, rasopathies, and fibrotic disease” (SHY Therapeutics, LLC, priority 2022, dated 2025).

The structures appear in SMILES notation.

The subject of test [1] is Smad2/Smad3 phosphorylation. Nature of the test: Phospho-Smad2/3 Inhibition Assay (western blot), Panc-1. As to conditions: at 10 μM, Panc-1 pancreatic cancer cell line; starred symbols = activation. It is filed as cell-based, human. An outline of the steps:
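Panc-1 cells (KRas G12D), starved overnight in 0.5% FBS, treated 3 h at 37° C with compound at 10 μM final (0.3% DMSO) or serial dilutions for IC50, then stimulated with 10 ng/ml TGF-b1 for 1 h. Phospho-Smad2 (Ser465/467) and phospho-Smad3 (Ser423/425) detected by western blot.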

Test [2] has as its system IL6. Put plainly: IL-6 Quantification Assay (ELISA), LPS-stimulated RAW 264.7. It is filed as cell-based. On the set-up: inhibition: dose or concentration left out as unconfirmed. To be noted: Mus musculus, RAW264.7; read-out: IL-6: % inh. A general note: ELISA stands for enzyme-linked immunosorbent assay.
Test [3] concerns the target T1, Rac-1 (Homo sapiens, UniProt P63000).
T1 construct: made in house
Put plainly: Ras GTP Binding Domain Inhibition Assay (Ras Superfamily Assay). To be noted: read-out: Rac-1: % inh. The procedure, abridged: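 Binding of 100 nM fluorescent GTP (Cy3 or Cy5, 45 min, room temperature) was read after washes from plate-captured His-tagged protein. Beforehand, compounds at 20 μM or in dilution series for IC50 sat 3 h on the protein in Tris buffer pH 7.4 or 7.0 with 1% DMSO, Sos GEF optionally added for the last hour.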

`COc1cccc(-c2cn3nc(-c4nccn4C)nc(N[C@H]4C[C@H](OC)C4)c3c2-c2ccccn2)c1C` [Compound 274, 6-(3-Methoxy-2-methylphenyl)-N-((1r,3r)-3-methoxycyclobutyl)-2-(1-methyl-1H-imidazol-2-yl)-5-(pyridin-2-yl)pyrrolo[2,1-f][1,2,4]triazin-4-amine]: the “% inh of Smad2/3 phosphorylation in Panc-1” value (“% inh” below) in test [1] is listed as “D (D = 76-100% inhibition)”. The inhibition in test [2] fell in the range of 75 to 100%. Besides, in test [3], the inhibition at 20 µM was 0%.

On to `Cc1c(-c2ccn(C)n2)cn2nc(-c3nccn3C)nc(Nc3cc(-n4ccnc4C)ccn3)c12` [Compound 246, 5-Methyl-N-(4-(2-methyl-1H-imidazol-1-yl)pyridin-2-yl)-2-(1-methyl-1H-imidazol-2-yl)-6-(1-methyl-1H-pyrazol-3-yl)pyrrolo[2,1-f][1,2,4]triazin-4-amine], for which the “% inh” value in test [1] is listed as “C* (C* = 46-75% activation)”. For the same compound, in test [2], the inhibition was in the range of 25 to 49%. Further, the inhibition at 20 µM in test [3] lay in the range of 76 to 100%.

Turning to `CCOc1cc(Nc2nc(-c3nccn3C)nn3cc(-c4ccn(C)n4)c(C)c23)n[nH]1` [Compound 260, N-(5-Ethoxy-1H-pyrazol-3-yl)-5-methyl-2-(1-methyl-1H-imidazol-2-yl)-6-(1-methyl-1H-pyrazol-3-yl)pyrrolo[2,1-f][1,2,4]triazin-4-amine], the “% inh” value in test [1] is recorded as “A* (A* = 1-25% activation)”. Also, the inhibition in test [2] fell in the range of 75 to 100%. Further, the inhibition at 20 µM in test [3] lay in the range of 50 to 75%.

Turning to `Cc1c(-c2ccn(C)n2)cn2nc(-c3nccn3C)nc(N3CCc4cc(C(F)(F)F)cnc43)c12` [Compound 251, 5-Methyl-2-(1-methyl-1H-imidazol-2-yl)-6-(1-methyl-1H-pyrazol-3-yl)-4-(5-(trifluoromethyl)-2,3-dihydro-1H-pyrrolo[2,3-b]pyridin-1-yl)pyrrolo[2,1-f][1,2,4]triazine], the “% inh” value in test [1] is reported as “A* (A* = 1-25% activation)”. The inhibition at 20 µM in test [3] was in the range of 26 to 49%.

For the compound `COc1cc(Nc2nc(-c3nccn3C)nn3cc(-c4ccn(C)n4)c(C)c23)nn1C` [Compound 253, N-(5-Methoxy-1-methyl-1H-pyrazol-3-yl)-5-methyl-2-(1-methyl-1H-imidazol-2-yl)-6-(1-methyl-1H-pyrazol-3-yl)pyrrolo[2,1-f][1,2,4]triazin-4-amine], the “% inh” value in test [1] is “A* (A* = 1-25% activation)”. The inhibition in test [2] is 25 to 49%. Also, the inhibition at 20 µM in test [3] lay within 76 to 100%.

As for `Cc1c(-c2ccn(C)n2)cn2nc(-c3nccn3C)nc(Nc3cc(-c4cccnc4)ccn3)c12` [Compound 250, N-([3,4′-Bipyridin]-2′-yl)-5-methyl-2-(1-methyl-1H-imidazol-2-yl)-6-(1-methyl-1H-pyrazol-3-yl)pyrrolo[2,1-f][1,2,4]triazin-4-amine], the “% inh” value in test [1] is recorded as “C* (C* = 46-75% activation)”. The inhibition in test [2] lay within 75 to 100%. Moreover, in test [3], the inhibition at 20 µM lay in the range of 76 to 100%.

`Cc1c(-c2ccn(C)n2)cn2nc(-c3nccn3C)nc(Nc3ccc(N4CCOCC4)cn3)c12` [Compound 247, 5-Methyl-2-(1-methyl-1H-imidazol-2-yl)-6-(1-methyl-1H-pyrazol-3-yl)-N-(5-morpholinopyridin-2-yl)pyrrolo[2,1-f][1,2,4]triazin-4-amine]: the “% inh” value in test [1] was “C* (C* = 46-75% activation)”. Moreover, the inhibition in test [2] fell in the range of 75 to 100%. Also, the inhibition at 20 µM in test [3] was 76 to 100%.

With `COc1cc(Nc2nc(-c3nccn3C)nn3cc(-c4ccn(C)n4)c(C)c23)n[nH]1` [Compound 252, N-(5-Methoxy-1H-pyrazol-3-yl)-5-methyl-2-(1-methyl-1H-imidazol-2-yl)-6-(1-methyl-1H-pyrazol-3-yl)pyrrolo[2,1-f][1,2,4]triazin-4-amine], the “% inh” value in test [1] is “B* (B* = 26-45% activation)”. Also, in test [2], the inhibition lay within 1 to 24%. The inhibition at 20 µM in test [3] is 76 to 100%.

Turning to `COc1cccc(-c2cn3nc(-c4nccn4C)nc(N[C@@H]4CC[C@H]4OC)c3c2-c2ccccc2)c1C` (racemic) [Compound 272, rac 6-(3-Methoxy-2-methylphenyl)-N-((1R,2R)-2-methoxycyclobutyl)-2-(1-methyl-1H-imidazol-2-yl)-5-phenylpyrrolo[2,1-f][1,2,4]triazin-4-amine], in test [1], the “% inh” value was “D (D = 76-100% inhibition)”. Moreover, in test [2], the inhibition lay within 75 to 100%. The inhibition at 20 µM in test [3] fell in the range of 1 to 25%.

As to `Cc1cc(Nc2nc(-c3nccn3C)nn3cc(-c4ccn(C)n4)c(C)c23)n[nH]1` [Compound 255, 5-Methyl-2-(1-methyl-1H-imidazol-2-yl)-6-(1-methyl-1H-pyrazol-3-yl)-N-(5-methyl-1H-pyrazol-3-yl)pyrrolo[2,1-f][1,2,4]triazin-4-amine], in test [1], the “% inh” value is given as “D* (D* = 76-100% activation)”. In addition, in test [2], the inhibition was in the range of 50 to 74%. In addition, in test [3], the inhibition at 20 µM lay within 76 to 100%.

On to `Cc1c(-c2ccn(C)n2)cn2nc(-c3nccn3C)nc(Nc3cc(C(C)C)[nH]n3)c12` [Compound 268, N-(5-Isopropyl-1H-pyrazol-3-yl)-5-methyl-2-(1-methyl-1H-imidazol-2-yl)-6-(1-methyl-1H-pyrazol-3-yl)pyrrolo[2,1-f][1,2,4]triazin-4-amine], for which the “% inh” value in test [1] is on record as “C (C = 46-75% inhibition)”. In test [2], the inhibition was 75 to 100%. In test [3], the inhibition at 20 µM is 76 to 100%.

Take `COc1ccc(F)c(-c2cn3nc(-c4nccn4C)nc(N[C@H]4C[C@H](OC)C4)c3c2-c2ccccc2)c1F` [Compound 273, 6-(2,6-Difluoro-3-methoxyphenyl)-N-((1r,3r)-3-methoxycyclobutyl)-2-(1-methyl-1H-imidazol-2-yl)-5-phenylpyrrolo[2,1-f][1,2,4]triazin-4-amine]: the “% inh” value in test [1] was “D (D = 76-100% inhibition)”. The inhibition in test [2] lay within 75 to 100%. Moreover, the inhibition at 20 µM in test [3] was in the range of 1 to 25%.

Consider `Cc1c(-c2ccn(C)n2)cn2nc(-c3nccn3C)nc(Nc3cc(-c4ccccc4)[nH]n3)c12` [Compound 263, 5-Methyl-2-(1-methyl-1H-imidazol-2-yl)-6-(1-methyl-1H-pyrazol-3-yl)-N-(5-phenyl-1H-pyrazol-3-yl)pyrrolo[2,1-f][1,2,4]triazin-4-amine], for which, in test [1], the “% inh” value is given as “C (C = 46-75% inhibition)”. The inhibition in test [2] was 75 to 100%. Also, the inhibition at 20 µM in test [3] is 76 to 100%.

Regarding `COc1cccc(-c2cn3nc(-c4nccn4C)nc(N[C@H]4C[C@@H](OC)C4)c3c2-c2ccccc2)c1C` [Compound 269, 6-(3-Methoxy-2-methylphenyl)-N-((1s,3s)-3-methoxycyclobutyl)-2-(1-methyl-1H-imidazol-2-yl)-5-phenylpyrrolo[2,1-f][1,2,4]triazin-4-amine], in test [1], the “% inh” value is on record as “D (D = 76-100% inhibition)”. The inhibition in test [2] was in the range of 75 to 100%. Besides, the inhibition at 20 µM in test [3] lay in the range of 26 to 49%.

For the compound `Cc1c(-c2ccn(C)n2)cn2nc(-c3nccn3C)nc(Nc3cc(-n4ccnc4)ccn3)c12` [Compound 245, N-(4-(1H-imidazol-1-yl)pyridin-2-yl)-5-methyl-2-(1-methyl-1H-imidazol-2-yl)-6-(1-methyl-1H-pyrazol-3-yl)pyrrolo[2,1-f][1,2,4]triazin-4-amine], the “% inh” value in test [1] is recorded as “B* (B* = 26-45% activation)”. In addition, in test [2], the inhibition lay in the range of 25 to 49%. Also, the inhibition at 20 µM in test [3] is 50 to 75%.

For the compound `COc1cc(Nc2nc(-c3nccn3C)nn3cc(-c4ccn(C)n4)c(C)c23)ncc1-n1cnc(C)c1` [Compound 244, N-(4-Methoxy-5-(4-methyl-1H-imidazol-1-yl)pyridin-2-yl)-5-methyl-2-(1-methyl-1H-imidazol-2-yl)-6-(1-methyl-1H-pyrazol-3-yl)pyrrolo[2,1-f][1,2,4]triazin-4-amine], the “% inh” value in test [1] is on record as “A* (A* = 1-25% activation)”. In addition, in test [2], the inhibition stood at 0%. In test [3], the inhibition at 20 µM was in the range of 76 to 100%.

`Cc1c(-c2ccn(C)n2)cn2nc(-c3nccn3C)nc(Nc3cc(-c4ccccn4)[nH]n3)c12` [Compound 265, 5-Methyl-2-(1-methyl-1H-imidazol-2-yl)-6-(1-methyl-1H-pyrazol-3-yl)-N-(5-(pyridin-2-yl)-1H-pyrazol-3-yl)pyrrolo[2,1-f][1,2,4]triazin-4-amine]: the “% inh” value in test [1] is “A (A = 1-25% inhibition)”. For the same compound, the inhibition in test [2] is 75 to 100%. Moreover, in test [3], the inhibition at 20 µM lay within 76 to 100%.

As for `Cc1c(-c2ccn(C)n2)cn2nc(-c3nccn3C)nc(Nc3cc(C(F)F)[nH]n3)c12` [Compound 258, N-(5-(Difluoromethyl)-1H-pyrazol-3-yl)-5-methyl-2-(1-methyl-1H-imidazol-2-yl)-6-(1-methyl-1H-pyrazol-3-yl)pyrrolo[2,1-f][1,2,4]triazin-4-amine], the “% inh” value in test [1] is given as “A* (A* = 1-25% activation)”. Moreover, the inhibition in test [2] was found to be 0%. In addition, the inhibition at 20 µM in test [3] stood at 0%.

With `Cc1c(-c2ccn(C)n2)cn2nc(-c3nccn3C)nc(-n3[nH]c(N)cc3=O)c12` [Compound 261, 5-Amino-2-(5-methyl-2-(1-methyl-1H-imidazol-2-yl)-6-(1-methyl-1H-pyrazol-3-yl)pyrrolo[2,1-f][1,2,4]triazin-4-yl)-1,2-dihydro-3H-pyrazol-3-one], the “% inh” value in test [1] is listed as “B* (B* = 26-45% activation)”. The inhibition in test [2] was in the range of 50 to 74%. In test [3], the inhibition at 20 µM lay in the range of 76 to 100%.
